Measurements as given in patent US20160339089A1, “IMMUNOGENIC/THERAPEUTIC GLYCOCONJUGATE COMPOSITIONS AND USES THEREOF” (OBI PHARMA, INC., priority 2014, published 2016).

Legend:
Type in all cases: in vivo
[1] = system: Globo H-specific IgM antibody; assay: Immunization in mice with different Globo H:KLH ratios and antibody test by ELISA; conditions: Balb/c mice, s.c. day 0, 7, 14, 21, with saponin adjuvant, sera, compared with PBS control or between weight ratios
Protocol: Different samples of the glycoconjugates (Globo H-KLH) were stored at 4° C., and mixed with a saponin adjuvant under a laminar flow hood. The resultant vaccine compositions were placed on ice and transported to animal facility for subsequent immunization.
Balb/c mice of approximately eight weeks old were given Globo H-KLH glycoconjugate with different carbohydrate-to-protein (Globo H: KLH) ratios once every week for four weeks (Day 0, 7, 14, and 21) via subcutaneous injection. Blood samples were collected through retro-orbital or facial vein without anticoagulant pre-immune or Day 0, and three days after each vaccination (Day 10, 17 and 24). Samples were then centrifuged to separate sera and red cells. Sera were collected and stored at −20° C., which were later analyzed by ELISA. Mann-Whitney t-test was used for statistical analysis.

[2] = system: B cells and T cells (CD3T, CD4T, CD8T) in PBMC; assay: Analysis of immune effector cell subpopulations in PBMC of immunized rats by flow cytometry; conditions: Lewis rats, s.c. immunization day 0, 7, 14, 21 with saponin adjuvant
Protocol: (§1) Different samples of the glycoconjugates (Globo H-KLH) as prepared in Example 1 were stored at 4° C., and mixed with a saponin adjuvant under a laminar flow hood. The resultant vaccine compositions were placed on ice and transported to animal facility for subsequent immunization.
(§2) The rats were immunized on day 0, 7, 14, and 21. Peripheral blood mononuclear cells (PBMC) and plasma were collected on day 0, 3, 10, 17, 24, and 31. Spleen, lymph node, and peritoneal wash were harvested on day 31.
The peripheral blood mononuclear cells (PBMCs) were isolated from the animals and then various immune effector cell subpopulations in the PBMC were identified by flow cytometry using specific antibodies against different cell markers The PBMCs, isolated from the immunized rats on day 0, 3, 10, 17, 24, and 31, were stained with different fluorescence (FITC)-conjugated antibodies and placed on ice for 30 minutes.

[3] = system: Globo H-specific IgG and IgM antibodies; assay: Globo H-specific antibody test by ELISA in plasma of immunized rats; conditions: Lewis rats, after immunization
Protocol: as §1, §2
The production of Globo H-specific antibodies in the plasma from the immunized rats was determined by ELISA assay. […] There was no response of Globo H-specific IgG and IgM antibody in rats treated with PBS only.

Substance: Fucα(1→2) Galβ(1→3) GalNAcβ(1→3) Galα(1→4) Galβ(1→4) Gluβ(1-O-ethylhydrazyl-1-carbonyl-cyclohexyl-4-(methyl-N-maleimido)-3-(thiobutyl-imidyl)-Keyhole Limpet Hemocyanin (KLH) [OBI-822]
- Globo H-specific IgM antibody responses [1]: significantly induce
- day at which CD3T, CD4T and CD8T cells appeared [2]: 24 days
- day at which the B cell population first appeared [2]: 3 days
- expansion of B cells and T cells compared to the PBS control group ([2]; flow cytometry): significantly expanded
- time at which titers of Globo H-specific IgG began to rise [3]: 10 days
- time at which titers of Globo H-specific IgG peaked [3]: 17 days
